Results on 5 compounds are retold here after article PMC12557367, ““Precision on Two Wheels”–Structural Refinement of ^64Cu- and ^68Ga-Labeled Bicyclic Peptides Targeting Nectin‑4 for Improved Tumor Imaging: From Preclinical Development to First-in-Human Application” (Journal of Medicinal Chemistry, 2025).

Data set [1] in a line: n-Octanol/PBS distribution coefficient (logD 7.4). The class given is physicochemical. To be noted: pH 7.4. The protocol:
The determination of logD 7.4 was performed in triplicate. A sample of the ^64Cu/^68Ga-labeled compound containing ≈1 MBq in a volume of 1 μL was added to a 1.5 mL Eppendorf tube containing 400 μL of PBS (pH 7.4) and 400 μL of n-Octanol (the phases were presaturated with each other). The tube was vortexed vigorously for 1 min and then centrifuged at 16,100g for 4 min to separate the phases. For sampling from the aqueous phase, the pipette tip was discharged while passing through the octanol layer. Then, the sample was taken within the aqueous phase. Any residual liquid was carefully removed by moving the tip along the inner wall of an Eppendorf tube. The radioactivity in a defined volume of each layer was measured (ISOMED 2100). The distribution coefficient was expressed as the logarithm of the ratio of counts per minute (cpm) measured in the n-Octanol phase to the cpm measured in the PBS phase.

Data set [2] has as its target human serum albumin (HSA) (Homo sapiens, UniProt P02768). It is filed as in vitro ADME. The source says:
page 20: S20 Figure S11: Assessment of plasma protein and HSA binding for [64Cu]Cu-1e and [64Cu]Cu-4 by ultrafiltration […] PBS), and undiluted human plasma. B) Plot of “percentage of retained activity in filter” = f([HSA]) for [64Cu]Cu-4 with nonlinear regression according to the Morrison equation ( total […] labeling). For details on the experimental method and regression analysis see ref. 1. PBS HSA Plasma 0% 20% 40% 60% 80% 47 64 50 percentage of retained activity in filter 102 103 104 105 106 107 0 20 40 60 80 100 [HSA] (nM) percentage of retained activity in filter […] A B (1 picture or pasted object on this page, not shown here)

For data set [3], the system named is HT-1376-derived tumor xenograft model. In words: Small animal PET/CT imaging. Also noted: species or system mice. The note with it: mouse, in vivo. The method in brief: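 NMRI nude mice bore subcutaneous HT-1376 xenografts (5 × 10^6 cells in 50% Matrigel), imaged at ~200 mm^3 tumour volume. Radioligand (molar activity 25 MBq/nmol; ~9 MBq, ≈0.46 nmol) injected i.v. via tail vein, with 75 nmol blocking substance co-injected for blocking; dynamic 2 h PET from injection plus CT for attenuation correction.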

Data set [4] is classed as in vitro ADME. To be noted: 24 h. The protocol:
Human plasma was collected as previously described. For assessing the stability in human plasma, 10 μL (10 MBq) of the labeling solution of [ ^ 64 Cu]-Cu-1e, [ ^ 64 Cu]-Cu-3a, or [ ^ 64 Cu]-Cu-4 were added to 90 μL of human plasma, and the mixture was incubated at 37 °C for up to 24 h. At distinct time points (1, 2, 4, and 24 h), an aliquot of 20 μL was withdrawn and diluted with 60 μL of a mixture named “Supersol” (composition as described above). This was followed by centrifugation at 16,100g for 2 min. The supernatant was analyzed by radio-HPLC (the same system as used for analyzing the ^64Cu-labelings).

For another data set, the system named is HT-1376 cells. Description: Saturation binding assay on intact cells. The note with it: intact HT-1376 cells, ±SD; for Kd: 60 min, PBS wash, apparent. It is filed as cell-based, human. How it is done:
For the saturation binding assay, total and nonspecific binding were determined as described above using 10 different radioligand concentrations ([…]) prepared by serial 1:1 dilution. Plots of “total binding” = f(radioligand) were analyzed by nonlinear regressions using the model of “one site-total, accounting for ligand depletion” as implemented in GraphPad Prism, and Plots of “nonspecific binding” = f(radioligand) were analyzed by linear regressions.

For data set [5], the target named is T1, recombinant human nectin-4 (Homo sapiens, UniProt Q96NY8).
T1 construct: close to the value determined for the complete extracellular domain of nectin-4 (0.94 nM); purchased R&D Systems 2659-N4
T1 sequence (Q96NY8 32-349 limits assumed): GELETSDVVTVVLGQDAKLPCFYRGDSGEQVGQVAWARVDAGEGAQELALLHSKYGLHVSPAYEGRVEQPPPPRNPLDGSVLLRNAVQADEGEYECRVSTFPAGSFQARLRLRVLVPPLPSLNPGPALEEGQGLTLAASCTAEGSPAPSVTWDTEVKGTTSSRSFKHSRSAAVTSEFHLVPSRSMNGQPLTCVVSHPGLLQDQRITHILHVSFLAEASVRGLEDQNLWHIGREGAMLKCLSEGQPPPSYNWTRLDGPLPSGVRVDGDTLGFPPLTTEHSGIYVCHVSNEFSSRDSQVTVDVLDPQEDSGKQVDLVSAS
Description: FA-based competitive binding assay with probe 1a. To be noted: for Hill coefficient n: competitive binding curve, variable slope.

Data set [6] in a line: Chromatographic hydrophobicity index at immobilized artificial membrane (CHI IAM7.4) by HPLC. It is filed as physicochemical. To be noted: nonlabeled peptide, pH 7.4. The protocol:
Consequently, the CHI IAM7.4 values indicate that unfavorable pharmacokinetic behavior due to nonspecific binding is not to be expected.
All commercial reagents and solvents were used without further purification, unless otherwise specified. […] The purity of compound 5, which bears selenomethionine, was lower due to the lability to oxidation (as discussed above). The HPLC-based determination of chromatographic hydrophobicity indices at an immobilized artificial membrane was performed as previously described according to the method developed by Valko et al.

For the next data set, the target named is nectin-4. Also noted: method as in Duan et al. The note with it: SPR, buffer pH 4.0; ref Duan et al.; read-out: binding affinity; cited from earlier work.

Numbered stars: 1 amine (or outer) side, 2 acyl side, 3 side chain; on linkers, the order of the positions; unused ones are H or OH. Bridge positions count the residues as written; N and C are the ends. Square brackets hold non-standard residues; d marks the D form. Peptide text beside a SMILES is read from it. * marks the point of attachment. DOTA = O=C(O)CN1CCN(CC(=O)O)CCN(CC(=O)*)CCN(CC(=O)O)CC1; TATA = O=C(CC[*:1])N1CN(C(=O)CC[*:2])CN(C(=O)CC[*:3])C1; X1 = O=C(O)CN1CCN(CC(=O)O)CCN([C@H](CCC(=O)*)C(=O)O)CC1; 1Nal = N[C@@H](Cc1cccc2ccccc12)C(=O)O; 2Nal = N[C@@H](Cc1ccc2ccccc2c1)C(=O)O; Hyp = O=C(O)[C@@H]1C[C@@H](O)CN1; hArg = N=C(N)NCCCC[C@H](N)C(=O)O; hSer = N[C@@H](CCO)C(=O)O; Nle = CCCC[C@H](N)C(=O)O

Sequence of human serum albumin (HSA) (P02768 25-609): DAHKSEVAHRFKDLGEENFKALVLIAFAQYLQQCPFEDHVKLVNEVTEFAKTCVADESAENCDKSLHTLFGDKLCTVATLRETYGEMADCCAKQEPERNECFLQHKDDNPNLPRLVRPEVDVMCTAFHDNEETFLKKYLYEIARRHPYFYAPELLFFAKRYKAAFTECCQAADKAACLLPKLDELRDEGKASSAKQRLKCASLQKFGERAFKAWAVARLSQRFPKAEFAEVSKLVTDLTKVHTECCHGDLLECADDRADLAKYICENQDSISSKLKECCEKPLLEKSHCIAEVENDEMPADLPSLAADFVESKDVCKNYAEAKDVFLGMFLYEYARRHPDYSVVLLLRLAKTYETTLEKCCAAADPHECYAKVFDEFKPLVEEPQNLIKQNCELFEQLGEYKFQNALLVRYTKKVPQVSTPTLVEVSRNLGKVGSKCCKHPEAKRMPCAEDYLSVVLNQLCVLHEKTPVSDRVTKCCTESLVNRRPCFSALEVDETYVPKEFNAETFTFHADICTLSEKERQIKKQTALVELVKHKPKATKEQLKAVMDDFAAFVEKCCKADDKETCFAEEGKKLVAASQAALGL

As to `COCC[C@@H]1NC(=O)[C@@H]2CSCCC(=O)N3CN(CN(C3)C(=O)CCSC[C@H](NC(=O)CC[C@H](C(=O)O)N3CCN(CC(=O)O)CCN(CC(=O)O)CC3)C(=O)N3CCC[C@H]3C(=O)N[C@@H](Cc3cccc4ccccc34)C(=O)N[C@H](CC(=O)O)C(=O)N2)C(=O)CCSC[C@@H](C(N)=O)NC(=O)[C@H](Cc2c[nH]c3ccccc23)NC(=O)[C@@H]2C[C@@H](O)CN2C(=O)[C@@H]2CCCN2C(=O)[C@H]([C@@H](C)O)NC(=O)[C@H](CO)NC(=O)[C@H](Cc2c[nH]c3ccccc23)NC(=O)[C@H](CC(=O)O)NC(=O)[C@H](CCCCNC(=N)N)NC1=O` [[^64Cu]Cu-4] [metal not drawn] (X1-CP[1Nal][dD]C[hSer](Me)[hArg]DWSTP[Hyp]WC-NH2; linker 1-5-15 via TATA), the “logD 7.4” value in data set [1] is −2.76. In addition, the “binding to HSA or other plasma proteins” value in data set [2] is recorded as “negligible binding capability”. In data set [3], the “body retention at 2 h p.i.” value is recorded as 40–42% and the “time of highest tumor uptake” value stood at 12.5 min.
With `COCC[C@@H]1NC(=O)[C@@H]2CSCCC(=O)N3CN(CN(C3)C(=O)CCSC[C@H](NC(=O)CC[C@H](C(=O)O)N3CCN(CC(=O)O)CCN(CC(=O)O)CC3)C(=O)N3CCC[C@H]3C(=O)N[C@@H](Cc3cccc4ccccc34)C(=O)N[C@H](CC(=O)O)C(=O)N2)C(=O)CCSC[C@@H](C(N)=O)NC(=O)[C@H](Cc2c[nH]c3ccccc23)NC(=O)[C@@H]2C[C@@H](O)CN2C(=O)[C@@H]2CCCN2C(=O)[C@H]([C@@H](C)O)NC(=O)[C@H](CO)NC(=O)[C@H](Cc2c[nH]c3ccccc23)NC(=O)[C@H](CC(=O)O)NC(=O)[C@H](CCCCNC(=N)N)NC1=O` [compound 4] (X1-CP[1Nal][dD]C[hSer](Me)[hArg]DWSTP[Hyp]WC-NH2; linker 1-5-15 via TATA), the “chemical and proteolytic stability in human plasma” value (“chemical and proteolytic stability” below) in data set [4] is recorded as “No signs of degradation”. Further, the results for the Kd in the data set with HT-1376 cells (^64Cu-labeled ligand) and with HT-1376 cells (^68Ga-labeled ligand) were 6.06 nM and 13.1 nM, respectively. For the same compound, in data set [5], the Hill coefficient n turned out to be 1.72. Besides, in data set [6], the “CHI IAM7.4” value came out at 20.2.
Regarding `CSCC[C@@H]1NC(=O)[C@@H]2CSCCC(=O)N3CN(CN(C3)C(=O)CCSC[C@H](NC(=O)CN3CCN(CC(=O)O)CCN(CC(=O)O)CCN(CC(=O)O)CC3)C(=O)N3CCC[C@H]3C(=O)N[C@@H](Cc3ccc4ccccc4c3)C(=O)N[C@H](CC(=O)O)C(=O)N2)C(=O)CCSC[C@@H](C(=O)O)NC(=O)[C@H](Cc2c[nH]c3ccccc23)NC(=O)[C@@H]2C[C@@H](O)CN2C(=O)[C@@H]2CCCN2C(=O)[C@H]([C@@H](C)O)NC(=O)[C@H](CO)NC(=O)[C@H](Cc2c[nH]c3ccccc23)NC(=O)[C@H](CC(=O)O)NC(=O)[C@H](CCCNC(=N)N)NC1=O` [8d, reference compound] ({DOTA}-CP[2Nal][dD]CMRDWSTP[Hyp]WC-OH; linker 1-5-15 via TATA), at nectin-4, the Kd is 23.7 nM. For the same compound, in the data set on HT-1376 cells (^68Ga-labeled ligand), the Kd stood at 222 nM and the “B max (fmol/mg)” value is on record as 291 (±77.9) fmol/mg. Moreover, the “factor less potent than DOTA conjugate 1f” value in data set [5] (FA K d ratio) is given as 26 fold. In addition, in data set [5], the Hill coefficient n came out at 2.53.
Consider `CSCC[C@@H]1NC(=O)[C@@H]2CSCCC(=O)N3CN(CN(C3)C(=O)CCSC[C@H](NC(=O)CC[C@H](C(=O)O)N3CCN(CC(=O)O)CCN(CC(=O)O)CC3)C(=O)N3CCC[C@H]3C(=O)N[C@@H](Cc3cccc4ccccc34)C(=O)N[C@H](CC(=O)O)C(=O)N2)C(=O)CCSC[C@@H](C(N)=O)NC(=O)[C@H](Cc2c[nH]c3ccccc23)NC(=O)[C@@H]2C[C@@H](O)CN2C(=O)[C@@H]2CCCN2C(=O)[C@H]([C@@H](C)O)NC(=O)[C@H](CO)NC(=O)[C@H](Cc2c[nH]c3ccccc23)NC(=O)[C@H](CC(=O)O)NC(=O)[C@H](CCCCNC(=N)N)NC1=O` [1e], for which, in data set [4], the “chemical and proteolytic stability” value is “No signs of degradation”. In the data set on HT-1376 cells (^64Cu-labeled ligand), the Kd was 7.15 nM and the “B max (fmol/mg)” value was 780 (±23.9) fmol/mg. Moreover, in the data set on HT-1376 cells (^68Ga-labeled ligand), the Kd came out at 8.7 nM and the “B max (fmol/mg)” value is listed as 1345 (±52.5) fmol/mg. The Hill coefficient n in data set [5] is 1.52. In addition, in data set [6], the “CHI IAM7.4” value was 19.9.
With `CCCC[C@@H]1NC(=O)[C@@H]2CSCCC(=O)N3CN(CN(C3)C(=O)CCSC[C@H](NC(=O)CC[C@H](C(=O)O)N3CCN(CC(=O)O)CCN(CC(=O)O)CC3)C(=O)N3CCC[C@H]3C(=O)N[C@@H](Cc3cccc4ccccc34)C(=O)N[C@H](CC(=O)O)C(=O)N2)C(=O)CCSC[C@@H](C(N)=O)NC(=O)[C@H](Cc2c[nH]c3ccccc23)NC(=O)[C@@H]2C[C@@H](O)CN2C(=O)[C@@H]2CCCN2C(=O)[C@H]([C@@H](C)O)NC(=O)[C@H](CO)NC(=O)[C@H](Cc2c[nH]c3ccccc23)NC(=O)[C@H](CC(=O)O)NC(=O)[C@H](CCCCNC(=N)N)NC1=O` [3a] (X1-CP[1Nal][dD]C[Nle][hArg]DWSTP[Hyp]WC-NH2; linker 1-5-15 via TATA), in data set [4], the “chemical and proteolytic stability” value was “No signs of degradation”. In addition, in data set [5], the Hill coefficient n came to 1.30. The “CHI IAM7.4” value in data set [6] was determined as 20.6.
